Experimental data reported in patent publication US7776538B2, “Method for diagnosing methamphetamine dependence” (National University Corporation Nagoya University, priority 2005, dated 2010).

Columns and labels:
Gene 1 mRNA = Gene 1 mRNA expression in brain tissue by RT-PCR; format: in vivo, mice; conditions: for Gene 1 expression amount in the nucleus accumbens induced by methamphetamine: methamphetamine 2 mg/kg s.c. six days, R(+)-SCH23390 0.1 mg/kg i.p. or raclopride 2 mg/kg i.p. 30 minutes before
Description: Antisense nucleotide of Gene 1 was continuously infused into the mouse cerebral ventricle by using a mini osmotic pump and methamphetamine was administered to the animals every day.
A mouse was fed with 6% ethanol or water (control) for 12 days, and then was subjected to decapitation. The amount of Gene 1 mRNA in the nucleus accumbens was measured by a RT-PCR method.

Genes 1 to 3 mRNA = test: Expression of Genes 1 to 3 mRNA by RT-PCR / real time RT-PCR after methamphetamine; format: in vivo, mice
Source text: Furthermore, when the increase of the expression amount was examined by a real time RT-PCR method, the expression amount was increased in the methamphetamine-administered cortex of frontal lobe, nucleus accumbens and striatum, respectively (FIGS. 10 to 12).

[1] = biological target: T1, human dopamine transporter (Homo sapiens, UniProt Q01959); test: Fluorescence immunostaining of intracellular movement of dopamine transporter in PC12 cell; conditions: before and after methamphetamine was acted
T1 construct: expressed in transfected cells; host or cells: PC12 cells
Description: In the PC12 cell, the human dopamine transporter was forcedly expressed and fluorescence immunostaining of a human dopamine transporter was carried out before and after methamphetamine was acted.

[2] = test system: mouse (C57black6) nucleus accumbens; test: cDNA subtraction of nucleus accumbens mRNA after methamphetamine; format: in vivo; conditions: methamphetamine 10 consecutive days, five genes incl. Gene 1, Gene 2, Gene 3 (Piccolo)
Description: By using RNeasy mini kit (QIAGEN), mRNA was prepared by the following procedure. Mouse brain was taken out and the tissue was divided so as to be 30 mg or less. The brain tissue was dissolved in a solution containing a protein denaturizing agent and centrifuged with a spin column. Ethanol precipitation was repeated. Finally, mRNA was purified with silica gel.
The cDNA subtraction was carried out by using CLONTECH PCR-Select™ cDNA Subtraction Kit (CLONTECH) according to the attached instruction manual.
Methamphetamine-administered mice show hyperactivity, and when methamphetamine is administered to mice every day, the degree of hyperactivity is increased. This can be thought to be a mental disorder accompanying drug dependence (FIG. 1). Then, mRNA was taken out from the mouse (C57black6) nucleus accumbens to which methamphetamine had been administered for 10 consecutive days. Based on this, cDNA subtraction (CLONTECH) was carried out. In mice to which methamphetamine had been administered, a gene in which mRNA expression amount increased by 20 times or more than that of a control group was searched. As a result, five genes satisfy the requirement (FIG. 2). In the genes, three genes except for CREB3 and Odz4 were used for the later research. For convenience of description, each gene is referred to as Gene 1, Gene 2 and Gene 3 (Piccolo).

mice = test: Locomotor activity test; format: in vivo; conditions: methamphetamine administered to mice every day (FIG. 1: 2 mg/kg, s.c., six days), hydrochloride
Description: In the test, ICR male mice (Japan SLC, Hamamatsu) that were 8-week old when the test was started. The mice were bred under conditions of light and dark cycle of 12 hours (light up: A.M 8:00), room temperature 23±1° C., and humidity 50±5%. The mice were freely fed with food (CE2: CLEA Japan, Tokyo) and water. Note here that this research program was approved by Animal Research Committee, Nagoya University School of Medicine and carried out in accordance with Guideline of Animal Research of Nagoya University School of Medicine and Principles of Laboratory Animal Care (National Institutes of Health Publication 85-23, 1985).
In the test, an acrylic cage (28 cm in length, 17 cm in width and 13 cm in height) that is the same kind as the home case was used. On the floor, a small amount of breeding chip was placed. […]
On days 1 to 3, mice were placed in a measurement cage for two hours so that the mice became accustomed to the measurement environment. […] Right after the administration, the total locomotor activity for two hours was measured.
Each of the antisense nucleotide of Gene 1 and 2 was infused into the mice cerebral ventricle continuously by using a mini osmotic pump and methamphetamine was administered to the animals every day. The locomotor activity on the first, third and fifth days was measured. […] The locomotor activity was measured for two hours. […]

T1 sequence (Q01959 whole entry): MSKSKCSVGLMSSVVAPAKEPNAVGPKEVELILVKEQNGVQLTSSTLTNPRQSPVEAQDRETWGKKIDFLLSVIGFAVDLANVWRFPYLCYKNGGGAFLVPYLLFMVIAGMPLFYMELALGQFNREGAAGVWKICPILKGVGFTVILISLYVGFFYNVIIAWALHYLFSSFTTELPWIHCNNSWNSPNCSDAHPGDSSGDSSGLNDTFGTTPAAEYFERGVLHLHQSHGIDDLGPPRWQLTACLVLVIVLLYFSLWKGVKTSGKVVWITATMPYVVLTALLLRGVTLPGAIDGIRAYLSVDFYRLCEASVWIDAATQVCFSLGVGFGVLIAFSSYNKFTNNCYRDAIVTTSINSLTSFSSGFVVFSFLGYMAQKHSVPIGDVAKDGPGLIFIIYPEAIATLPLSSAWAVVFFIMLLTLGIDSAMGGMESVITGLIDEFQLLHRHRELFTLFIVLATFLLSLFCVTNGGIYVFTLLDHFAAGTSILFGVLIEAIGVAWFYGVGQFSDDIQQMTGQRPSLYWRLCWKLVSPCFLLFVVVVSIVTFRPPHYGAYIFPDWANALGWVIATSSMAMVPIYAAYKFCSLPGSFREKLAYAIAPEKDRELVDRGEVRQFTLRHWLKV

## CCO [ethanol]
Gene 1 mRNA; 6% ethanol fed for 12 days vs water
  Gene 1 mRNA amount in the nucleus accumbens: no significant correlation

## CN[C@@H](C)Cc1ccccc1.Cl [methamphetamine, methamphetamine hydrochloride]
Genes 1 to 3 mRNA; methamphetamine administered group compared with control group, all primer combinations
  mRNA of Genes 1 to 3 (RT-PCR): increase of mRNA was observed
Genes 1 to 3 mRNA; methamphetamine-administered cortex of frontal lobe, nucleus accumbens and striatum
  expression amount of Genes 1 to 3 (real time RT-PCR): increased
[1]
  intracellular movement of the human dopamine transporter: intracellular movement of the human dopamine transporter was observed
[2]
  mRNA expression amount increase over control group: ≥ 20 times
mice
  locomotor activity: enhanced
mice; listed as Methamphetamine
  locomotor activity: hyperactivity

## c1ccc(C2(N3CCCCC3)CCCCC2)cc1 [phencyclidine]
Gene 1 mRNA; phencyclidine 10 mg/kg s.c. 14 days
  Gene 1 mRNA amount in the cortex of frontal lobe: no significant correlation

## CN1CCc2cc(Cl)c(O)cc2[C@@H](c2ccccc2)C1 [R(+)-SCH23390]
Gene 1 mRNA
  Gene 1 expression amount in the nucleus accumbens induced by methamphetamine: significant difference was observed

## CN1CCCC1c1cccnc1 (centres unmarked) [nicotine]
Gene 1 mRNA; nicotine 0.05-1.0 mg/kg s.c. 12 days
  Gene 1 mRNA amount in the nucleus accumbens: correlation between the administration of nicotine and the expression amount of Gene 1 was observed

## CCN1CCC[C@H]1CNC(=O)c1c(O)c(Cl)cc(Cl)c1OC [raclopride]
Gene 1 mRNA
  Gene 1 expression amount in the nucleus accumbens induced by methamphetamine: significant difference was observed
